Consider eleven molecules from ChEMBL document CHEMBL1240331, “Chemical genetic interrogation of natural variation uncovers a molecule that is glycoactivated” (Nat Chem Biol, 2007).

Calls of active or inactive are those of the source. The calls are words filed in the database; no cut-off is given here. Where only a bound is given, the exact number is not on record here.

Common to all, as to format: functional, organism-based
Test [1] concerns Arabidopsis thaliana. Put plainly: Growth inhibition of Arabidopsis thaliana ecotype Columbia assessed as inhibition of germination at 100 uM.
Test [2] deals with Arabidopsis thaliana. As to the kind of experiment: Growth inhibition of Arabidopsis thaliana ecotype Br-0 assessed as inhibition of germination.
Test [3] deals with Arabidopsis thaliana. As to the kind of experiment: Growth inhibition of Arabidopsis thaliana ecotype Ull2-3 assessed as inhibition of germination.
Test [4] has as its system Arabidopsis thaliana. Put plainly: Growth inhibition of Arabidopsis thaliana ecotype Pog-0 assessed as inhibition of germination.
The test system of test [5] is Arabidopsis thaliana. Put plainly: Growth inhibition of Arabidopsis thaliana ecotype Rld-2 assessed as decrease in hypocotyl length.
The subject of test [6] is Arabidopsis thaliana. Put plainly: Growth inhibition of Arabidopsis thaliana ecotype RRS7 assessed as decrease in root length.
For test [7], the system named is Arabidopsis thaliana. As to the kind of experiment: Growth inhibition of Arabidopsis thaliana ecotype Columbia assessed as decrease in root length.
The subject of test [8] is Arabidopsis thaliana. Put plainly: Growth inhibition of Arabidopsis thaliana ecotype CSH-1 assessed as inhibition of germination.
Test [9] has as its system Arabidopsis thaliana. As to the kind of experiment: Growth inhibition of Arabidopsis thaliana ecotype Columbia assessed as inhibition of germination.
Test [10] deals with Arabidopsis thaliana. Put plainly: Growth inhibition of Arabidopsis thaliana ecotype Co assessed as inhibition of germination.
The subject of test [11] is Arabidopsis thaliana. As to the kind of experiment: Growth inhibition of Arabidopsis thaliana ecotype Ra-0 assessed as inhibition of germination.
Test [12] relates to Arabidopsis thaliana. As to the kind of experiment: Growth inhibition of Arabidopsis thaliana ecotype Kyoto assessed as inhibition of germination.
For test [13], the system named is Arabidopsis thaliana. Put plainly: Growth inhibition of Arabidopsis thaliana ecotype LIN assessed as inhibition of germination.
Test [14] has as its system Arabidopsis thaliana. Put plainly: Growth inhibition of Arabidopsis thaliana ecotype KZ1 assessed as inhibition of germination.

One may read the IC50 as the point on the concentration scale where inhibition reaches its midpoint. `O=[N+]([O-])c1ccc(CN2CCCCC2c2cccnc2)cc1` (stereo not drawn): the “growth inhibition (GI)” value in the test with Arabidopsis thaliana [1] is “inactive”. Moreover, the 50% inhibitory concentration (IC50) in the test with Arabidopsis thaliana [2] was determined as 3 µM.

As to `OC(c1ccccc1)(c1ccccc1)c1c[nH]cn1`, in the test on Arabidopsis thaliana [1], the “growth inhibition (GI)” value is “inactive”. In addition, in the test on Arabidopsis thaliana [3], the IC50 amounted to 17 µM. As for `COc1ccc2occ(C(=O)c3ccccc3Cl)c(=O)c2c1`, in the test with Arabidopsis thaliana [4], the IC50 amounted to 3 µM.

On to `CCOC(=O)N1CCN(c2cc(C)c3ccc(Cl)cc3n2)CC1` [POLARAZINE], for which, in the test on Arabidopsis thaliana [5], the IC50 was 13 µM. Regarding `Cc1ccc(C(C)C)c(OCC(=O)N/N=C/c2cccnc2)c1` [CHUBOXYPYR], the IC50 with Arabidopsis thaliana [6] worked out at 22 µM; with Arabidopsis thaliana [7], 80 µM. On to `CCOc1ccc(S(=O)(=O)NCc2ccccn2)c2ccccc12` [PYRABACTIN B], for which the IC50 in the test on Arabidopsis thaliana [8] was determined as 2.5 µM; in the test on Arabidopsis thaliana [9], 8.4 µM.

On to `CCc1ccc(CN2CCCCC2c2cccnc2)cc1` (stereo not drawn), for which the “growth inhibition (GI)” value in the test on Arabidopsis thaliana [1] is “inactive”. The 50% inhibitory concentration (IC50) with Arabidopsis thaliana [10] is 10 µM. As for `CC1CCC(C(C)C)C(=O)/C1=C\c1ccc(N)cc1` (stereo not drawn), the “growth inhibition (GI)” value in the test on Arabidopsis thaliana [1] is “inactive”. Besides, the IC50 in the test with Arabidopsis thaliana [11] is 7 µM. As for `CCN(CC)c1ccc(C(=O)c2ccccc2C(=O)O)c(O)c1`, in the test with Arabidopsis thaliana [1], the “growth inhibition (GI)” value is “inactive”. The IC50 in the test on Arabidopsis thaliana [12] was found to be 12.5 µM. As for `O=C(c1ccccc1Cl)c1coc2ccccc2c1=O`, in the test on Arabidopsis thaliana [13], the IC50 is at most 14 µM.

As for `O=S(=O)(NCc1ccccn1)c1ccc(Br)c2ccccc12` [PYRABACTIN A], the IC50 in the test with Arabidopsis thaliana [14] was determined as 2.2 µM.
